Measurements from PubChem BioAssay AID256 (DTP/NCI, 2004).
Values joined by “and” are separate entries in the source; they are usually repeats but may differ in a detail not shown here. Equal values may be shown once. Toxic doses and inconclusive results are not listed.

System: CD2F1 mice, L1210 leukemia ip, survival T/C
Experiment: NCI In Vivo Anticancer Drug Screen. Data for tumor model L1210 Leukemia (intraperitoneal) in CD2F1 (CDF1) mice
Conditions: higher = longer survival
Method in brief: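 In this screen, transplantable tumors were grown in mice given either the compound or its vehicle. Results were expressed as the treated measurement relative to the control measurement.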

[1] = endpoint: mean survival time, dose: 12.5 mg/kg/injection, schedule: Q01DX009 (ip), vehicle: saline with Tween-80
[2] = endpoint: mean survival time, dose: 25.0 mg/kg/injection, schedule: Q01DX009 (ip), vehicle: saline with Tween-80
[3] = endpoint: mean survival time, dose: 100.0 mg/kg/injection, schedule: Q01DX009 (ip), vehicle: saline with Tween-80
[4] = endpoint: mean survival time, dose: 200.0 mg/kg/injection, schedule: Q01DX009 (ip), vehicle: saline with Tween-80
[5] = endpoint: mean survival time, dose: 400.0 mg/kg/injection, schedule: Q01DX009 (ip), vehicle: saline with Tween-80
[6] = endpoint: mean survival time, dose: 100.0 mg/kg/injection, schedule: Q04DX003 (ip), vehicle: saline with Tween-80
[7] = endpoint: mean survival time, dose: 200.0 mg/kg/injection, schedule: Q04DX003 (ip), vehicle: saline with Tween-80
[8] = endpoint: mean survival time, dose: 400.0 mg/kg/injection, schedule: Q04DX003 (ip), vehicle: saline with Tween-80
[9] = endpoint: mean survival time, dose: 100.0 mg/kg/injection, schedule: Q04DX002 (ip), vehicle: saline with Tween-80
[10] = endpoint: mean survival time, dose: 200.0 mg/kg/injection, schedule: Q04DX002 (ip), vehicle: saline with Tween-80
[11] = endpoint: mean survival time, dose: 400.0 mg/kg/injection, schedule: Q04DX002 (ip), vehicle: saline with Tween-80

For Cc1ccc([NH-])c([NH-])c1.[Cl][Pt+2][Cl], the T/C (endpoint: mean survival time, dose: 2.5 mg/kg/injection, schedule: Q01DX009 (ip), vehicle: saline with Tween-80) was 151 % of control, the T/C (endpoint: mean survival time, dose: 5.0 mg/kg/injection, schedule: Q01DX009 (ip), vehicle: saline with Tween-80) was 180 % of control and the T/C (endpoint: mean survival time, dose: 20.0 mg/kg/injection, schedule: Q01DX009 (ip), vehicle: saline with Tween-80) was 94 % of control.
For Cc1nc(NN)c([N+](=O)[O-])c(NN)n1, the T/C (endpoint: mean survival time, dose: 100.0 mg/kg/injection, schedule: Q04DX003 (ip), vehicle: Klucel (hydroxypropylcellulose) (HPC)) was 89 % of control, the T/C (endpoint: mean survival time, dose: 200.0 mg/kg/injection, schedule: Q04DX003 (ip), vehicle: Klucel (hydroxypropylcellulose) (HPC)) was 95 % of control and the T/C (endpoint: mean survival time, dose: 400.0 mg/kg/injection, schedule: Q04DX003 (ip), vehicle: Klucel (hydroxypropylcellulose) (HPC)) was 102 % of control.
With CSc1nc(NC2OC(CO)C(O)C(O)C2O)c(Br)c(=O)n1C (stereo not drawn) the T/C (endpoint: median survival time, dose: 12.5 mg/kg/injection, schedule: Q01DX005 (ip), vehicle: saline with Tween-80) was 98 % of control, the T/C (endpoint: median survival time, dose: 25.0 mg/kg/injection, schedule: Q01DX005 (ip), vehicle: saline with Tween-80) was 100 % of control and the T/C (endpoint: median survival time, dose: 50.0 mg/kg/injection, schedule: Q01DX005 (ip), vehicle: saline with Tween-80) was 96 % of control. For the same compound, the T/C (endpoint: median survival time, dose: 100.0 mg/kg/injection, schedule: Q01DX005 (ip), vehicle: saline with Tween-80) was 101 % of control.
In the case of COc1ccc2cc[n+](C)c(Cc3ccc(OC)c(Oc4ccc(Cc5c(OC)ccc6cc[n+](C)cc56)cc4)c3)c2c1, the T/C (endpoint: mean survival time, dose: 1.56 mg/kg/injection, schedule: Q04DX003 (ip), vehicle: other) is reported as 98 % of control, the T/C (endpoint: mean survival time, dose: 3.13 mg/kg/injection, schedule: Q04DX003 (ip), vehicle: other) is reported as 102 % of control and the T/C (endpoint: mean survival time, dose: 6.25 mg/kg/injection, schedule: Q04DX003 (ip), vehicle: other) is reported as 98 % of control and 103 % of control.
For Cc1ccc(NC(=O)NC(C)C)c(C)c1, the T/C (endpoint: mean survival time, dose: 6.25 mg/kg/injection, schedule: Q01DX009 (ip), vehicle: saline with Tween-80) was 97 % of control, the T/C [1] was 100 % of control and the T/C [2] was 97 % of control.
In the case of CCN(C(=O)c1ccc(C(=O)N(CC)c2ccccc2)cc1)c1ccccc1, the T/C [3] is reported as 95 % of control, the T/C [4] is reported as 101 % of control and the T/C [5] is reported as 90 % of control.
For CCOC(=O)C(C(=O)OCC)C1CCS(=O)(=O)C1 (stereo not drawn), the T/C [6] was 95 % of control, the T/C [7] was 97 % of control and the T/C [8] was 95 % of control.
With COc1cc2ccc3c(c2cc1OC)C(=O)CNC3C (stereo not drawn) the T/C (endpoint: mean survival time, dose: 3.13 mg/kg/injection, schedule: Q01DX009 (ip), vehicle: saline) was 105 % of control, the T/C (endpoint: mean survival time, dose: 6.25 mg/kg/injection, schedule: Q01DX009 (ip), vehicle: saline) was 98 % of control and the T/C (endpoint: mean survival time, dose: 12.5 mg/kg/injection, schedule: Q01DX009 (ip), vehicle: saline) was 104 % of control.
For O=C(NO)c1cc(Br)cc(Br)c1O, the T/C [9] was 96 % of control, the T/C [10] was 92 % of control and the T/C [11] was 103 % of control.
For CC(C)C(=O)C(C)(C)c1nc2ccccc2[nH]1, the T/C [9] was 106 % of control, the T/C [10] was 98 % of control and the T/C [11] was 87 % of control.
With CC(=O)Nc1ccc(OCCOC(=O)Nc2ccc(C)c([N+](=O)[O-])c2)cc1 the T/C [1] was 92 % of control, the T/C [2] was 88 % of control and the T/C (endpoint: mean survival time, dose: 50.0 mg/kg/injection, schedule: Q01DX009 (ip), vehicle: saline with Tween-80) was 92 % of control.
In the case of O=C(Nc1ccccc1)Nc1ccccc1F, the T/C [3] is reported as 95 % of control, the T/C [4] is reported as 113 % of control and the T/C [5] is reported as 98 % of control.
In the case of O=C(Cc1ccccc1)c1ccc(Cl)cc1, the T/C (endpoint: mean survival time, dose: 100.0 mg/kg/injection, schedule: Q01DX001 (ip), vehicle: saline with Tween-80) is reported as 101 % of control, the T/C (endpoint: mean survival time, dose: 200.0 mg/kg/injection, schedule: Q01DX001 (ip), vehicle: saline with Tween-80) is reported as 88 % of control and the T/C (endpoint: mean survival time, dose: 400.0 mg/kg/injection, schedule: Q01DX001 (ip), vehicle: saline with Tween-80) is reported as 93 % of control.
With Nc1ccccc1-c1ccc([N+](=O)[O-])cc1 the T/C [6] was 94 % of control, the T/C [7] was 92 % of control and the T/C [8] was 101 % of control.
